Laboratory results from patent publication EP4656654A1, “SOMATOSTATIN PEPTIDE ANALOGUE, CHELATE AND USE THEREOF” (Qianhangjiang Pharmaceutical Co., Ltd., priority 2023, dated 2025).
Like-named read-outs stand apart in the source and are kept apart here. Numbered stars: 1 amine (or outer) side, 2 acyl side, 3 side chain; on linkers, the order of the positions; unused ones are H or OH. Bridge positions count the residues as written; N and C are the ends. Square brackets hold non-standard residues; d marks the D form. Peptide text beside a SMILES is read from it. * marks the point of attachment. Phe(3-CH2NH2) = O=C([C@H](Cc1cccc(CN[*:3])c1)N[*:1])[*:2]; DOTA = O=C(O)CN1CCN(CC(=O)O)CCN(CC(=O)*)CCN(CC(=O)O)CC1; X2 = CC(C)(CN)CC[C@H](N[*:1])C(=O)[*:2]; X1 = CC(CN)CC[C@H](N[*:1])C(=O)[*:2]; Thr(ol) = C[C@@H](O)[C@H](N)CO

Target: T1, SSTR2 (Homo sapiens, UniProt P30874)
T1 construct: host or cells: CHO-K1
Assay: competitive radioligand binding assay (125I-Tyr11-Somatostatin-14) on membranes of SSTR2-overexpressing CHO-K1 cells
Conditions: for EC50: radioligand 125I-Tyr11-Somatostatin-14, SSTR2 CHO-K1 cell membrane; for Bottom: parameter A, bottom of fitted % Effect curve; for Top: parameter B, top of fitted % Effect curve; for Hill slope: parameter D of fitted curve
Procedure: A competitive radioligand binding assay is utilized to measure the binding affinity of the somatostatin analogs of Formula II of the present invention. SSTR2-overexpressing CHO-K1 cells (Hunter Express SSTR2 CHO-K1; DiscoverX) are used in the radioligand competitive binding assay, with ^125I-Tyr^11-Somatostatin-14 (PerkinElmer) as the radioligand. The assay is performed as follows:
SSTR2-overexpressing CHO-K1 cells (from Discover X) were cultured in complete medium (F12 basal medium with 10% FBS and 1% P/S [100 U/mL penicillin and 100 µg/mL streptomycin]) in a 37°C incubator with 5% CO2. When the cell confluency reached 80-90%, the cells were washed twice with pre-cooled PBS. The cells were then scraped off with a cell scraper and transferred to a 50 mL centrifuge tube, followed by centrifugation at 500×g and 4°C for 10 minutes. The supernatant was discarded, and the cell pellet was retained. Cell membrane lysis buffer (containing 25 mM HEPES, 1 mM EDTA, 2 mM MgCl2, and 1× protease inhibitor, pH = 7.4) was added at a ratio of 4 × 10^7 cells/10 mL and placed on ice for 10 minutes. The cells were then disrupted using an IKA disruptor. The operating procedure was 15,000 rpm for 10 seconds, repeated twice. The disrupted cell suspension was centrifuged at 4°C and 650×g for 5 minutes. The supernatant was transferred to a new centrifuge tube and centrifuged at 13,000 rpm and 4°C for 30 minutes. The supernatant was discarded, and the cell membrane pellet was resuspended in 1.6 mL of resuspension buffer, which was cell membrane lysis buffer supplemented with 10% sucrose. The cell membrane lysis buffer was repeatedly aspirated 4 times with a 27-gauge needle to break the DNA. The cell membrane extract was measured for protein concentration using the BCA method and aliquoted and stored at -80°C.
• (1) Dilution of Compound: The assay buffer used contains 50 mM Hepes, 5 mM MgCl2, 1 mM CaCl2, and 0.5% BSA, pH = 7.4, and the buffer is filtered. The assay buffer is kept at 4°C. The ligand solution is serially diluted using an Agilent Bravo. Each test compound is diluted […] in succession. The eight binding concentrations of typical compounds are: 50 nM, 12.5 nM, 3.13 nM, 0.78 nM, 0.20 nM, 0.05 nM, 12.2 pM, and 3.05 pM. The affinity of each concentration is measured twice. Transfer 1 µL of each diluted compound to the corresponding wells of a 96-well V-bottom plate. • (2) Preparation of 125I-SST: The stock solution of 125I-SST was diluted to 3 nM (10×) with binding buffer (containing 50 mM Hepes, 5 mM MgCl2, 1 mM CaCl2, and 0.5% BSA, pH = 7.4, stored at 4°C). Transfer 10 µL of the solution to the corresponding compound well. • (3) Binding Experiment: The extracted cell membrane was diluted to 2.5 µg/90 µL with binding buffer and added to the corresponding wells. The mixture was incubated at 500 rpm on a 25°C shaker for 2 hours. The membrane complex was collected into a 0.5% PEI pre-coated GF/B plate using a Cell Harvester, and rinsed 3 times per well with 200 µL of pre-cooled buffer (4°C) (the same buffer used to dilute the compound). The plate was dried at 37°C for 2 hours. After adding 50 µL of liquid scintillation fluid (MicroScint20, Perkin Elmer) to each well and incubating for 30 minutes, the radioactivity was measured using a Topcount plate reader for 30 seconds per well.
For each compound, its 8-point reading data (2× of 8 readings) were imported into XLfit software and fitted to the sigmoidal curve. The EC50 of the compound for SSTR2 was calculated based on the mathematically optimal sigmoidal dose-response model equation: y−A + ((B−A))/(1 + (((C)/(x)))^D) [formula] where A represents the bottom of the curve, B represents the top of the curve, C represents the relative EC50, D represents the Hill slope, y represents the percentage effect value (% Effect) of the curve fitting, and x represents the molar concentration.

[1] = concentration x calculated from the fit at y = 50% effect, read-out: Absolute EC50
[2] = parameter C of sigmoidal fit, 8 concentrations in duplicate, read-out: Relative EC50

T1 sequence (P30874 whole entry): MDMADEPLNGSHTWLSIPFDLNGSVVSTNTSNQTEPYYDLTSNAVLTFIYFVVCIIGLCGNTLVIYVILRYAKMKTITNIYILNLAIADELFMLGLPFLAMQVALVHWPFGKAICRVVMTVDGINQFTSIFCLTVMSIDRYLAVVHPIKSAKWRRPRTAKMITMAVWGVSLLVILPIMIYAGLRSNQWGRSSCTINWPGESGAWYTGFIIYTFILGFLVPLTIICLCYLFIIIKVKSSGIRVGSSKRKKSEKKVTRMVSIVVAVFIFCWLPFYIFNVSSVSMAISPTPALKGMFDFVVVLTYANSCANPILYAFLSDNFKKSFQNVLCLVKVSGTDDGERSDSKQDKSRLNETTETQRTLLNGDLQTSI

Row | Structure (SMILES) | EC50 [1] [nM] | Bottom [%] | Top [%] | EC50 [2] [nM] | Hill slope
1 | C[C@@H](O)[C@@H]1NC(=O)[C@H](C2CCCC(CN)C2)NC(=O)[C@@H](Cc2c[nH]c3ccccc23)NC(=O)[C@H](Cc2ccccc2)NC(=O)[C@@H](NC(=O)[C@H](N)Cc2ccccc2)CSSC[C@@H](C(=O)N[C@H](CO)[C@@H](C)O)NC1=O (single isomer, unassigned) [Compound 4] | 0.071 | 11.7 | 99.9 | 0.091 | 1.07
2 | C[C@@H](O)[C@@H]1NC(=O)[C@H](C2CCCC(CN)C2)NC(=O)[C@@H](Cc2c[nH]c3ccccc23)NC(=O)[C@H](Cc2ccccc2)NC(=O)[C@@H](NC(=O)[C@H](N)Cc2ccccc2)CSSC[C@@H](C(=O)N[C@H](CO)[C@@H](C)O)NC1=O (single isomer, unassigned) [Compound 7p2] | – | 10.8 | 99.5 | – | 1.08
3 | C[C@@H](O)[C@@H]1NC(=O)[C@H](CCCCCN)NC(=O)[C@@H](Cc2c[nH]c3ccccc23)NC(=O)[C@H](Cc2ccccc2)NC(=O)[C@@H](NC(=O)[C@H](N)Cc2ccccc2)CSSC[C@@H](C(=O)N[C@H](CO)[C@@H](C)O)NC1=O [Compound 1] | 0.74 | – | – | 1.3 | –
4 | C[C@@H](O)[C@@H]1NC(=O)[C@H](CCC(C)(C)CN)NC(=O)[C@@H](Cc2c[nH]c3ccccc23)NC(=O)[C@H](Cc2ccccc2)NC(=O)[C@@H](NC(=O)[C@H](N)Cc2ccccc2)CSSC[C@@H](C(=O)N[C@H](CO)[C@@H](C)O)NC1=O [Compound 2] (H-[dF]CF[dW][X2]TC[Thr(ol)]; disulfide 2-7) | 1 | – | – | 1.2 | –
5 | CC(CN)CC[C@@H]1NC(=O)[C@@H](Cc2c[nH]c3ccccc23)NC(=O)[C@H](Cc2ccccc2)NC(=O)[C@@H](NC(=O)[C@H](N)Cc2ccccc2)CSSC[C@@H](C(=O)N[C@H](CO)[C@@H](C)O)NC(=O)[C@H]([C@@H](C)O)NC1=O (some centres unmarked) [Compound 3] (H-[dF]CF[dW][X1]TC[Thr(ol)]; disulfide 2-7) | 0.25 | – | – | 0.29 | –
6 | C[C@@H](O)[C@@H]1NC(=O)[C@H](Cc2cccc(CN)c2)NC(=O)[C@@H](Cc2c[nH]c3ccccc23)NC(=O)[C@H](Cc2ccccc2)NC(=O)[C@@H](NC(=O)[C@H](N)Cc2ccccc2)CSSC[C@@H](C(=O)N[C@H](CO)[C@@H](C)O)NC1=O [Compound 5] (H-[dF]CF[dW][Phe(3-CH2NH2)]TC[Thr(ol)]; disulfide 2-7) | – | 8.7 | 100.0 | – | 0.84
7 | C[C@@H](O)[C@H](NC(=O)[C@@H]1CSSC[C@H](NC(=O)[C@@H](Cc2ccccc2)NC(=O)CN2CCN(CC(=O)O)CCN(CC(=O)O)CCN(CC(=O)O)CC2)C(=O)N[C@@H](Cc2ccc(O)cc2)C(=O)N[C@H](Cc2c[nH]c3ccccc23)C(=O)N[C@@H](CCC(C)(C)CN)C(=O)N[C@@H]([C@@H](C)O)C(=O)N1)C(=O)O [Compound 6] ({DOTA}-[dF]CY[dW][X2]TCT-OH; disulfide 2-7; N-terminus and C-terminus assumed) | – | 13.2 | 98.3 | – | 0.88
